Results taken from patent US4530932A, “4-(1H-indol-3-yl)-α-methyl-piperidine-1-ethanol derivatives” (Roussel Uclaf, priority 1982, dated 1985).
Structures can show the parent of a compound that is named as a salt. Where two headings read alike, the source gives them in different places.

Assays:
[1] = tested on: cardiac rhythm troubles in guinea pigs; experiment: Antiarythmic action (K-strophanthine and adrenaline induced cardiac rhythm troubles); assay type: in vivo, guinea pig; details: Cavia porcellus, 1 h, oral 10 mg/kg, one hour before K-strophanthine and adrenaline perfusion, read-out: Percentage of protection (lengthening of the time of appearance of cardiac rhythm troubles as compared to controls)
Experimental: Male guinea pigs weighing between 450 and 500 g were tracheotomized while anesthesized by intraperitoneal administration of […] of urethane and were subjected to artifical respiration of 40 to 50 breaths of 5 ml per minute. Needles were subcutaneously implanted to register an electrocardiogram of the guinea pigs for the signal of D II derivation. The test products were orally administered and one hour later, the jugular vein of the guinea pigs were perfused with 0.5 ml per minute of a solution of 150 γ/ml of K-strophanthine and 0.5 ml per minute of a solution of 5 γ/ml of adrenaline and the number of times of the appearance of cardiac rhythm troubles was noted. The results are expressed in percentage of protection with an oral dose of 10 mg/kg of test product that is to say the percentage of lengthening of the time of appearance of cardiac rhythm troubles as compared to the controls.

[2] = target: T1, β1 adrenergic receptors (Rattus norvegicus, UniProt P18090); experiment: Affinity for β1 adrenergic receptors (3H dihydroalprenolol displacement, rat brain cortex); assay type: binding; details: relative to propranolol, 37° C., pH 7.7
T1 construct: 10 cortexes removed from the brains of male rats weighing an average of 150 g; from tissue; host or cells: cerebral cortex of male rats (membranes)
T1 sequence (P18090 whole entry): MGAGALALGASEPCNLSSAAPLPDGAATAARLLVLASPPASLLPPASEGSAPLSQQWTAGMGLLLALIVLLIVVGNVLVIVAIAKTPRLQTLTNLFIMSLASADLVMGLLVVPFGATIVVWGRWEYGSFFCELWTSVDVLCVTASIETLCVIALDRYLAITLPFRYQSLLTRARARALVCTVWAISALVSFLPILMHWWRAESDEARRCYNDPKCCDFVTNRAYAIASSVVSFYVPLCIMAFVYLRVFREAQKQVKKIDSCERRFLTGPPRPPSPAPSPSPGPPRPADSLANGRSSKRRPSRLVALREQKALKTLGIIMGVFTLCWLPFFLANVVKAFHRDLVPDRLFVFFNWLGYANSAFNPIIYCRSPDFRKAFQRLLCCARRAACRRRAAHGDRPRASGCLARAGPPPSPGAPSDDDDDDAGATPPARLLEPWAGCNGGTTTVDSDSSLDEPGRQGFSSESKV
Experimental: The test was inspired by that of Mohler et al [Science, Vol. 198 (1977), p. 849-851] and 10 cortexes removed from the brains of male rats weighing an average of 150 g were homogenized in 90 ml of 0.32M of sucrose. After centrifuging the homogenized mixture at 1000 g for 20 minutes at 0° C., the surnageant was centrifuged at 30,000 g for 15 minutes at 0° to 4° C. The culot was suspended in 120 ml of buffer Tris HCl 50 mM with a pH of 7.7 and was centrifuged at 30,000 g for 15 minutes at 0° to 4° C. The resulting culot was suspended in 480 ml of buffer Krebs Tris HCl (50 mM-pH of 7.7) and 2 ml of the suspension in the presence of 3H dihydroalprenolol at a concentration of 10^-9 M alone and with increasing concentrations of the test compound or with non-radioactive propranolol at a concentration of 10^-5 M to determine the non-specific fixation was incubated at 37° C. for 10 minutes.
The incubated suspensions were filtered through Whatman GF/C and the filters were washed 3 times with 5 ml of buffer Krebs Tris HCl (pH-7.7) at 0° C. The radioactivity of the filters was measured by liquid scintillation and the affinity of the test compounds for β1 -adrenergic receptors was compared using propranolol as a standard as in Test D. The results are reported in Table VI.

[3] = tested on: Rat arteries (arterial contractions, entry of calcium ions into the cells of smooth muscles); experiment: In vitro anticalcic activity (inhibition of potassium-depolarized, calcium-induced contractions of isolated rat arteries); assay type: cell-based; details: dose inhibiting by 50% the contractions caused by potassium ions (100 mM), 37° C., read-out: CI50 (the source's name)
Experimental: Rat arteries decoupled in a spiral were attached to a tension collector and were maintained in tanks containing 2.5 ml of Krebs-sodium bicarbonate buffer (NaCl: 120.8 mM, KCl: 5.9 mM, MgCl2 : 1.2 mM, NaH2 PO4 : 1.2 mM, NaHCO3 : 15.5 mM, glucose: 12.6 mM), at 37° C. covered with a 95%-5% oxygen-carbon dioxide mixture. The preparations were depolarized with a buffered solution containing 100 mM of potassium ions (NaCl: 26.7 mM, KCl: 100 mM, MgCl2 : 1.2 mM, NaH2 PO4 : 1.2 mM, NaHCO3 : 15.5 mM, glucose 12.6 mM).
A volume of 25 μl of calcium chloride was added to the mixture in a manner to obtain a range of increasing concentrations of calcium ions from 0.1 to 3.0 mM and the contractions of the artery were measured to obtain a control. The operation with range of calcium ions was repeated every 15 minutes and the preparation was washed 4 times after each range. When a stable response was obtained, the operation with the range of calcium ions was effected in the presence of varying concentrations of test compounds until a stable response was obtained.
The arterial contractions depend on the entry of calcium ions into the cells of smooth muscles and are provoked by depolarization of smooth muscles by potassium ions and by action of noradrenaline freed by presynapthic level. By recommencing the operation with denerved arteries by the action of 6-hydroxy-dopamine, the specific action due to noradrenaline is suppressed.

[4] = target: T2, β2 -adrenergic receptors (Rattus norvegicus, UniProt P10608); experiment: Affinity for β2 adrenergic receptors (3H dihydroalprenolol displacement, rat cerebellum); assay type: binding; details: relative to propranolol, 37° C., pH 7.7
T2 construct: cerebellums of male rats weighing an average of 150 g; from tissue; host or cells: cerebellum of male rats (membranes)
T2 sequence (P10608 whole entry): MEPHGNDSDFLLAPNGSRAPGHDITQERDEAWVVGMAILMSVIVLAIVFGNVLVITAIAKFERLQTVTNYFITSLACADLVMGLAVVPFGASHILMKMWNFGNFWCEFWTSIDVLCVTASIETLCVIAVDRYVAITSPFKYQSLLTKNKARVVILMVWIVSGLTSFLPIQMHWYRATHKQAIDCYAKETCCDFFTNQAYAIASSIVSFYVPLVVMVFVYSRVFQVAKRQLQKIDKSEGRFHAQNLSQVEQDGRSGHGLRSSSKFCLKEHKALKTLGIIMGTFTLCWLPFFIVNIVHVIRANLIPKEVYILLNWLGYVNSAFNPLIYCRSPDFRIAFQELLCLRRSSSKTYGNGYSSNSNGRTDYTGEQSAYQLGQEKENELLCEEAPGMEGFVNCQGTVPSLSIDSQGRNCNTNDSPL
Experimental: The technique was inspired by that of Mohler et al [Science, Vol. 198 (1977), p. 849-851] and the cerebellums of male rats weighing an average of 150 g were homogenized in 90 ml of 0.32M sucrose. After centrifugation of the homogenized mixture at 1000 g for 20 minutes at 0° C., the surnageant was centrifuged at 30,000 g for 15 minutes at 0° to 4° C. The culot was suspended in 120 ml of buffer Tris HCl (50 mM-pH of 7.7) and the suspension was centrifuged at 30,000 g for 15 minutes at 0° to 4° C. The resulting culot was suspended in 480 ml of buffer Krebs Tris HCl with a pH of 7.7 and 2 ml of the suspension was incubated at 37° C. for 10 minutes in the presence of 3H dihydroalprenolol at a concentration of 10^-9 M alone and with increasing concentrations of the test compound or with 10^-5 M of non-radioactive propranolol to determine the non-specific fixation.
The incubated suspensions were filtered through Whatman FG/C filter and the filters were rinsed 3 times with 5 ml of buffer Krebs Tris HCl with a pH of 7.7 at 0° C. The radioactivity of the filters was measured by liquid scintillation and the affinity of the test compounds for β2 -adrenergic receptors relative to propranolol as a standard was determined similar as to Test D. The results are reported in Table VII.

[5] = tested on: mice; experiment: Acute toxicity (DL0, oral); assay type: in vivo, mouse; parameters: unit not given here
[6] = tested on: carotidien arterial pressure in rats; experiment: Hypotensive activity (carotidien arterial pressure in anesthesized rats); assay type: in vivo, rat (Wistar); details: rat, intravenous
Experimental: The hypotensive activity was studied on male rats of the Wistar strain weighing about 300 g and anesthesized with 50 mg/kg of nembutal intraveinously. The test products were administered intraveinously by the jugular vein and the carotidien arterial pressure was measured before and after administration of the test compounds. The variations expressed in percentage of arterial pressure after administration with respect to the initial pressure is reported in Table IV.

[7] = tested on: α1 adrenergic receptors; experiment: Affinity for α1 adrenergic receptors (3H prazosine displacement, rat brain); assay type: binding; details: relative to phentolamine (ARL=100×(CB/CX)), 25° C., pH 7.7
Experimental: After centrifugation at 30,000 g for 15 minutes at 0° to 4° C., the culot was suspended in 240 ml of buffer Tris HCl 50 mM (pH-7.7) and the suspension was centrifuged at 30,000 g for 20 minutes at 0° to 4° C. The new culot was suspended in 480 ml of buffer Krebs Tris HCl (pH of 7.7-50 mM) and 2 ml of the suspension in the presence of 3H prazosine at a concentration of […] alone and with increasing concentrations of the test compound or with non-radioactive phentolamine at a concentration of 10^-5 M to determine the non-specific fixation was incubated at 25° C. for 30 minutes.
The incubated suspensions were filtered through Whatman FG/C and the filtered were washed with 3 times with 5 ml of buffer Krebs Tris HCl-pH of 7.7 at 0° to 4° C. The radioactivity of the filters was measured by liquid scintillation and the affinity of the test compound for α1 adrenergic receptors was compared relative to phentolamine as the reference compound by the formula
CD=concentration of phentolamine inhibiting by 50% the specific fixation of 3H prazosine.
CX=concentration of test product inhibiting by 50% the specific fixation of 3H prazosine.

[8] = 1 min, 1 minute, read-out: % Variation of arterial pressure after administration, 1 minute
[9] = 5 min, 5 minutes, read-out: % Variation of arterial pressure after administration, 5 minutes
[10] = 10 min, 10 minutes, read-out: % Variation of arterial pressure after administration, 10 minutes
[11] = 0.5 h, 30 minutes, read-out: % Variation of arterial pressure after administration, 30 minutes

SMILES | change in vivo at 10 mg/kg [1] [%] | ARL in % (relative affinity for β1 adrenergic receptors) [2] [%] | IC50 [3] [µM] | ARL in % (relative affinity for β2 adrenergic receptors) [4] [%] | DL0 (maximum dose which did not cause any deaths after 8 days) [5] | change in vivo at 1 mg/kg [6, 8] [%] | change in vivo at 1 mg/kg [6, 9] [%] | change in vivo at 1 mg/kg [6, 10] [%] | change in vivo at 1 mg/kg [6, 11] [%] | % Arl (relative affinity for α1 adrenergic receptors) [7] [%]
CC(=O)c1ccccc1OCC(O)CN1CCC(c2c[nH]c3ccccc23)CC1 (stereo not drawn) [Example 17, 4-(1H--indol-3-yl)-α-[2-(acetyl-phenoxymethyl]-piperidine-1-ethanol hydrochloride] | 142 | 1.2 | 6 | 3.3 | > 100 | -17 | -5 | -18 | -6 | 159
N#Cc1ccccc1OCC(O)CN1CCC(c2c[nH]c3ccccc23)CC1 (stereo not drawn) [Example 4, 4-(1H--indol-3-yl)-α-[2-cyanophenoxymethyl]-piperidine-1-ethanol hydrochloride] | 148 | 13.3 | 3.5 | 1.1 | > 100 | -24 | -21 | -22 | -26 | 145
COC(=O)c1ccccc1OCC(O)CN1CCC(c2c[nH]c3ccccc23)CC1 (stereo not drawn) [Example 6, 4-(1H--indol-3-yl)-α-[2-methoxycarbonyl-phenoxymethyl]-piperidine-1-ethanol hydrochloride] | 37 | 1.3 | 3 | 3.5 | 80 | -21 | -13 | -13 | 0 | 253
